Assays:
[1] = Biodistribution in normal mice; format: in vivo, ddY mice; conditions: for Blood / Heart / Intestine / Kidney / Liver / Lung / Muscle / Pancreas / Spleen / Stomach / Thyroid gland: normal mice, i.v.
Method: A saline solution (5% ethanol, v/v) of [^125I]TAP1 (0.035 MBq) was injected intravenously into the tail vein of ddY mice (males, 5 weeks old). The mice were sacrificed at various post-injection time points, and the organs of interest were removed. The organ weights were determined, and the radioactivity in the organs was measured with a well-type γ-counter.

C6 tumors = test: Biodistribution in C6 bearing mice; format: in vivo, Balb/c nu-nu mice; conditions: for Blood / Heart / Intestine / Kidney / Liver / Lung / Muscle / Pancreas / Spleen / Stomach / Tumor / T/B ratio / T/M ratio: C6 bearing mice, i.v.; for T/B ratio: tumor to blood; for T/M ratio: tumor to muscle
Method: C6 cells were suspended in PBS(-) followed by subcutaneous inoculation into the right hind legs of Balb/c nu-nu mice (5×10^6 cells/100 µL).
A saline solution (5% ethanol, v/v) of [^125I]TAP1 (0.06 MBq) was injected intravenously into the tail vein of C6 cell implantation model Balb/c nu-nu mice (males, 8 weeks old). The mice were sacrificed at various post-injection time points and organs, including tumor tissues, were removed. The weight and radioactivity of the organs were measured as mentioned above. Several model mice were sacrificed 3 hr after the injection by transcardial perfusion of saline (20 ml) under anesthesia with chloral hydrate. The weight and radioactivity of the removed organs, including tumor tissues, were measured as mentioned above.

stability against deiodination in vivo ([1]; low radioactivity in stomach and thyroid gland): stable against deiodination
Blood ([1]; 5 min): 3.25±0.20 % injected dose per gram
Heart ([1]; 5 min): 1.59±0.54 % injected dose per gram
Intestine ([1]; 5 min): 2.21±1.43 % injected dose per gram
Kidney ([1]; 5 min): 15.30±9.93 % injected dose per gram
Liver ([1]; 5 min): 57.51±4.79 % injected dose per gram
Lung ([1]; 5 min): 3.12±1.11 % injected dose per gram
Muscle ([1]; 5 min): 0.73±0.51 % injected dose per gram
Pancreas ([1]; 5 min): 1.53±0.84 % injected dose per gram
Spleen ([1]; 5 min): 1.54±0.60 % injected dose per gram
Stomach ([1]; 5 min): 0.40±0.14 % injected dose per organ
Thyroid gland ([1]; 5 min): 0.01±0.005 % injected dose per organ
Blood ([1]; 15 min): 3.91±0.75 % injected dose per gram
Heart ([1]; 15 min): 1.57±0.51 % injected dose per gram
Intestine ([1]; 15 min): 2.21±0.72 % injected dose per gram
Kidney ([1]; 15 min): 32.89±11.78 % injected dose per gram
Liver ([1]; 15 min): 47.58±2.57 % injected dose per gram
Lung ([1]; 15 min): 2.88±0.65 % injected dose per gram
Muscle ([1]; 15 min): 0.83±0.09 % injected dose per gram
Pancreas ([1]; 15 min): 1.23±0.26 % injected dose per gram
Spleen ([1]; 15 min): 1.84±0.43 % injected dose per gram
Stomach ([1]; 15 min): 0.76±0.14 % injected dose per organ
Thyroid gland ([1]; 15 min): 0.03±0.01 % injected dose per organ
Blood ([1]; 30 min): 3.45±0.41 % injected dose per gram
Heart ([1]; 30 min): 1.39±0.25 % injected dose per gram
Intestine ([1]; 30 min): 3.83±0.07 % injected dose per gram
Kidney ([1]; 30 min): 45.34±3.34 % injected dose per gram
Liver ([1]; 30 min): 50.91±7.27 % injected dose per gram
Lung ([1]; 30 min): 2.76±0.49 % injected dose per gram
Muscle ([1]; 30 min): 0.67±0.16 % injected dose per gram
Pancreas ([1]; 30 min): 0.89±0.12 % injected dose per gram
Spleen ([1]; 30 min): 1.29±0.13 % injected dose per gram
Stomach ([1]; 30 min): 0.92±0.21 % injected dose per organ
Thyroid gland ([1]; 30 min): 0.03±0.01 % injected dose per organ
Blood ([1]; 60 min): 2.02±0.35 % injected dose per gram
Heart ([1]; 60 min): 0.96±0.32 % injected dose per gram
Intestine ([1]; 60 min): 5.10±1.43 % injected dose per gram
Kidney ([1]; 60 min): 45.89±13.85 % injected dose per gram
Liver ([1]; 60 min): 46.70±4.43 % injected dose per gram
Lung ([1]; 60 min): 1.93±0.91 % injected dose per gram
Muscle ([1]; 60 min): 0.64±0.20 % injected dose per gram
Pancreas ([1]; 60 min): 1.46±0.55 % injected dose per gram
Spleen ([1]; 60 min): 1.14±0.38 % injected dose per gram
Stomach ([1]; 60 min): 1.40±0.69 % injected dose per organ
Thyroid gland ([1]; 60 min): 0.02±0.08 % injected dose per organ
Blood ([1]; 120 min): 1.72±0.49 % injected dose per gram
Heart ([1]; 120 min): 1.11±0.23 % injected dose per gram
Intestine ([1]; 120 min): 10.58±1.93 % injected dose per gram
Kidney ([1]; 120 min): 50.84±18.75 % injected dose per gram
Liver ([1]; 120 min): 31.00±1.52 % injected dose per gram
Lung ([1]; 120 min): 1.46±0.13 % injected dose per gram
Muscle ([1]; 120 min): 0.71±0.24 % injected dose per gram
Pancreas ([1]; 120 min): 0.64±0.1 % injected dose per gram
Spleen ([1]; 120 min): 1.44±1.21 % injected dose per gram
Stomach ([1]; 120 min): 2.02±0.70 % injected dose per organ
Thyroid gland ([1]; 120 min): 0.14±0.21 % injected dose per organ
radioactivity accumulation in tumors (peak) (C6 tumors; 15 min after injection): 2.26±0.45 %ID/g
radioactivity accumulation in C6 tumors (C6 tumors; 3 hr after injection): 1.37±0.24 % dose/g
tumor accumulation, decapitation (C6 tumors; 3 hr after injection, sacrificed by decapitation): 0.85±0.18 %ID/g
tumor accumulation, transcardial perfusion (C6 tumors; 3 hr after injection, sacrificed by transcardial perfusion): 0.96±0.18 %ID/g
tumor to muscle ratio (C6 tumors; 3 hr after probe injection): 3.6
Blood (C6 tumors; 5 min): 10.40±2.34 % injected dose per gram
Heart (C6 tumors; 5 min): 3.36±0.64 % injected dose per gram
Intestine (C6 tumors; 5 min): 2.35±0.34 % injected dose per gram
Kidney (C6 tumors; 5 min): 29.66±2.24 % injected dose per gram
Liver (C6 tumors; 5 min): 46.01±5.99 % injected dose per gram
Lung (C6 tumors; 5 min): 6.76±1.12 % injected dose per gram
Muscle (C6 tumors; 5 min): 1.05±0.33 % injected dose per gram
Pancreas (C6 tumors; 5 min): 2.55±0.31 % injected dose per gram
Spleen (C6 tumors; 5 min): 2.20± 0.44 % injected dose per gram
Stomach (C6 tumors; 5 min): 0.42±0.16 % injected dose per organ
Tumor (C6 tumors; 5 min): 1.94±0.44 % injected dose per gram
Blood (C6 tumors; 15 min): 6.60±0.61 % injected dose per gram
Heart (C6 tumors; 15 min): 2.45±0.41 % injected dose per gram
Intestine (C6 tumors; 15 min): 5.08±0.95 % injected dose per gram
Kidney (C6 tumors; 15 min): 62.82±9.70 % injected dose per gram
Liver (C6 tumors; 15 min): 37.58±2.88 % injected dose per gram
Lung (C6 tumors; 15 min): 4.26±0.19 % injected dose per gram
Muscle (C6 tumors; 15 min): 0.74±0.15 % injected dose per gram
Pancreas (C6 tumors; 15 min): 1.20±0.20 % injected dose per gram
Spleen (C6 tumors; 15 min): 1.09±0.10 % injected dose per gram
Stomach (C6 tumors; 15 min): 1.02±0.38 % injected dose per organ
Tumor (C6 tumors; 15 min): 2.26±0.45 % injected dose per gram
Blood (C6 tumors; 30 min): 4.74±1.17 % injected dose per gram
Heart (C6 tumors; 30 min): 1.76±0.40 % injected dose per gram
Intestine (C6 tumors; 30 min): 7.97±1.32 % injected dose per gram
Kidney (C6 tumors; 30 min): 77.74±8.14 % injected dose per gram
Liver (C6 tumors; 30 min): 42.20±1.51 % injected dose per gram
Lung (C6 tumors; 30 min): 3.16±1.07 % injected dose per gram
Muscle (C6 tumors; 30 min): 0.57±0.12 % injected dose per gram
Pancreas (C6 tumors; 30 min): 0.88±0.13 % injected dose per gram
Spleen (C6 tumors; 30 min): 0.84±0.14 % injected dose per gram
Stomach (C6 tumors; 30 min): 0.60±0.13 % injected dose per organ
Tumor (C6 tumors; 30 min): 1.63±0.38 % injected dose per gram
Blood (C6 tumors; 60 min): 3.25±0.66 % injected dose per gram
Heart (C6 tumors; 60 min): 1.12±0.17 % injected dose per gram
Intestine (C6 tumors; 60 min): 11.59±0.20 % injected dose per gram
Kidney (C6 tumors; 60 min): 71.54±8.25 % injected dose per gram
Liver (C6 tumors; 60 min): 30.46±3.28 % injected dose per gram
Lung (C6 tumors; 60 min): 2.19±0.52 % injected dose per gram
Muscle (C6 tumors; 60 min): 0.37±0.05 % injected dose per gram
Pancreas (C6 tumors; 60 min): 0.63±0.08 % injected dose per gram
Spleen (C6 tumors; 60 min): 0.65±0.08 % injected dose per gram
Stomach (C6 tumors; 60 min): 0.73±0.40 % injected dose per organ
Tumor (C6 tumors; 60 min): 1.09±0.05 % injected dose per gram
Blood (C6 tumors; 180 min): 3.29±0.40 % injected dose per gram
Heart (C6 tumors; 180 min): 1.14±0.04 % injected dose per gram
Intestine (C6 tumors; 180 min): 15.76±3.03 % injected dose per gram
Kidney (C6 tumors; 180 min): 73.44±4.42 % injected dose per gram
Liver (C6 tumors; 180 min): 33.97±4.98 % injected dose per gram
Lung (C6 tumors; 180 min): 1.88±0.25 % injected dose per gram
Muscle (C6 tumors; 180 min): 0.39±0.09 % injected dose per gram
Pancreas (C6 tumors; 180 min): 0.70±0.13 % injected dose per gram
Spleen (C6 tumors; 180 min): 0.82±0.11 % injected dose per gram
Stomach (C6 tumors; 180 min): 0.89±0.40 % injected dose per organ
Tumor (C6 tumors; 180 min): 1.37±0.24 % injected dose per gram
T/B ratio (C6 tumors; 5 min): 0.19±0.04
T/B ratio (C6 tumors; 15 min): 0.34±0.06
T/B ratio (C6 tumors; 30 min): 0.35±0.03
T/B ratio (C6 tumors; 60 min): 0.34±0.05
T/B ratio (C6 tumors; 180 min): 0.42±0.04
T/M ratio (C6 tumors; 5 min): 1.94±0.52
T/M ratio (C6 tumors; 15 min): 3.08±0.10
T/M ratio (C6 tumors; 30 min): 2.96±0.73
T/M ratio (C6 tumors; 60 min): 2.95±0.41
T/M ratio (C6 tumors; 180 min): 3.60±0.98
Structure (SMILES): O=c1cc(COc2cccc([125I])c2)[nH]c2nc(-c3ccccc3)nn12 [[^125I]TAP1]
